Source: ChEMBL document CHEMBL5143680, “Cytotoxic Bromine- and Iodine-Containing Cytochalasins Produced by the Mangrove Endophytic Fungus Phomopsis sp. QYM-13 Using the OSMAC Approach” (J Nat Prod, 2022)

Test system: MDA-MB-231
Test: Cytotoxicity against human MDA-MB-231 cells measured after 72 hrs by MTT assay
Format: functional, cell-based
Conditions: MDA-MB-231, 72 h

| Compound | IC50 [µM] |
| --- | --- |
| CC(=O)O[C@@H]1/C=C/[C@](C)(O)C[C@@H](C)C/C=C/[C@H]2C=C(C(=O)O)[C@@H](C)[C@H]3[C@H](Cc4ccccc4)NC(=O)[C@]321 | > 50 |
| C=C1[C@@H](C)[C@H]2[C@H](Cc3ccccc3)NC(=O)[C@@]23[C@@H]([C@@H]2[C@H](/C=C(/C)C[C@@H](C)C[C@H]2O)[C@H]3OC(C)=O)[C@@H]1O | > 50 |
| C=C1[C@@H](C)[C@H]2[C@H](Cc3ccccc3)NC(=O)[C@]23[C@H](OC(C)=O)/C=C/C(C)=C\[C@@H](C)C/C=C/[C@H]3[C@@H]1O | 45 |
| C=C1[C@@H](C)[C@H]2[C@H](Cc3ccccc3)NC(=O)[C@]23[C@H](O)/C=C/[C@](C)(O)C[C@@H](C)C/C=C/[C@H]3[C@@H]1O | 31 |
| CC1=C[C@@H]2/C=C/C[C@H](C)C[C@@](C)(O)[C@@H]3O[C@H]3C(=O)[C@]23C(=O)N[C@@H](Cc2ccccc2)[C@@H]3[C@@H]1C | 11 |
| C=C1[C@@H](C)[C@H]2[C@H](Cc3ccccc3)NC(=O)[C@@]23[C@@H]([C@@H]2[C@H](/C=C(/C)C[C@@H](C)C[C@H]2I)[C@H]3OC(C)=O)[C@@H]1O | 43 |
| CC(=O)O[C@@H]1/C=C/[C@](C)(O)C[C@@H](C)C/C=C/[C@H]2C=C(C)[C@@H](C)[C@H]3[C@H](Cc4ccccc4)NC(=O)[C@]321 | > 50 |
| C=C1[C@@H](C)[C@H]2[C@H](Cc3ccccc3)NC(=O)[C@@]23[C@@H]([C@@H]2[C@H](/C=C(/C)C[C@@H](C)C[C@H]2Br)[C@H]3OC(C)=O)[C@@H]1O | 44 |
| CC1=C[C@@H]2/C=C/C[C@H](C)C[C@H](C)[C@@H]3O[C@H]3C(=O)[C@]23C(=O)N[C@@H](Cc2ccccc2)[C@@H]3[C@@H]1C | > 50 |

Test system: HepG2
Test: Cytotoxicity against human HepG2 cells measured after 72 hrs by MTT assay
Format: functional, cell-based
Conditions: HepG2, 72 h

| Compound | IC50 [µM] |
| --- | --- |
| CC(=O)O[C@@H]1/C=C/[C@](C)(O)C[C@@H](C)C/C=C/[C@H]2C=C(C(=O)O)[C@@H](C)[C@H]3[C@H](Cc4ccccc4)NC(=O)[C@]321 | > 50 |
| C=C1[C@@H](C)[C@H]2[C@H](Cc3ccccc3)NC(=O)[C@@]23[C@@H]([C@@H]2[C@H](/C=C(/C)C[C@@H](C)C[C@H]2O)[C@H]3OC(C)=O)[C@@H]1O | > 50 |
| C=C1[C@@H](C)[C@H]2[C@H](Cc3ccccc3)NC(=O)[C@]23[C@H](OC(C)=O)/C=C/C(C)=C\[C@@H](C)C/C=C/[C@H]3[C@@H]1O | > 50 |
| C=C1[C@@H](C)[C@H]2[C@H](Cc3ccccc3)NC(=O)[C@]23[C@H](O)/C=C/[C@](C)(O)C[C@@H](C)C/C=C/[C@H]3[C@@H]1O | > 50 |
| CC1=C[C@@H]2/C=C/C[C@H](C)C[C@@](C)(O)[C@@H]3O[C@H]3C(=O)[C@]23C(=O)N[C@@H](Cc2ccccc2)[C@@H]3[C@@H]1C | > 50 |
| C=C1[C@@H](C)[C@H]2[C@H](Cc3ccccc3)NC(=O)[C@@]23[C@@H]([C@@H]2[C@H](/C=C(/C)C[C@@H](C)C[C@H]2I)[C@H]3OC(C)=O)[C@@H]1O | 47 |
| CC(=O)O[C@@H]1/C=C/[C@](C)(O)C[C@@H](C)C/C=C/[C@H]2C=C(C)[C@@H](C)[C@H]3[C@H](Cc4ccccc4)NC(=O)[C@]321 | > 50 |
| C=C1[C@@H](C)[C@H]2[C@H](Cc3ccccc3)NC(=O)[C@@]23[C@@H]([C@@H]2[C@H](/C=C(/C)C[C@@H](C)C[C@H]2Br)[C@H]3OC(C)=O)[C@@H]1O | > 50 |
| CC1=C[C@@H]2/C=C/C[C@H](C)C[C@H](C)[C@@H]3O[C@H]3C(=O)[C@]23C(=O)N[C@@H](Cc2ccccc2)[C@@H]3[C@@H]1C | > 50 |

Test system: SNB-19
Test: Cytotoxicity against human SNB-19 cells measured after 72 hrs by MTT assay
Format: functional, cell-based
Conditions: SNB-19, 72 h

| Compound | IC50 [µM] |
| --- | --- |
| CC(=O)O[C@@H]1/C=C/[C@](C)(O)C[C@@H](C)C/C=C/[C@H]2C=C(C(=O)O)[C@@H](C)[C@H]3[C@H](Cc4ccccc4)NC(=O)[C@]321 | > 50 |
| C=C1[C@@H](C)[C@H]2[C@H](Cc3ccccc3)NC(=O)[C@@]23[C@@H]([C@@H]2[C@H](/C=C(/C)C[C@@H](C)C[C@H]2O)[C@H]3OC(C)=O)[C@@H]1O | > 50 |
| C=C1[C@@H](C)[C@H]2[C@H](Cc3ccccc3)NC(=O)[C@]23[C@H](OC(C)=O)/C=C/C(C)=C\[C@@H](C)C/C=C/[C@H]3[C@@H]1O | 42 |
| C=C1[C@@H](C)[C@H]2[C@H](Cc3ccccc3)NC(=O)[C@]23[C@H](O)/C=C/[C@](C)(O)C[C@@H](C)C/C=C/[C@H]3[C@@H]1O | 6.8 |
| CC1=C[C@@H]2/C=C/C[C@H](C)C[C@@](C)(O)[C@@H]3O[C@H]3C(=O)[C@]23C(=O)N[C@@H](Cc2ccccc2)[C@@H]3[C@@H]1C | > 50 |
| C=C1[C@@H](C)[C@H]2[C@H](Cc3ccccc3)NC(=O)[C@@]23[C@@H]([C@@H]2[C@H](/C=C(/C)C[C@@H](C)C[C@H]2I)[C@H]3OC(C)=O)[C@@H]1O | > 50 |
| CC(=O)O[C@@H]1/C=C/[C@](C)(O)C[C@@H](C)C/C=C/[C@H]2C=C(C)[C@@H](C)[C@H]3[C@H](Cc4ccccc4)NC(=O)[C@]321 | > 50 |
| C=C1[C@@H](C)[C@H]2[C@H](Cc3ccccc3)NC(=O)[C@@]23[C@@H]([C@@H]2[C@H](/C=C(/C)C[C@@H](C)C[C@H]2Br)[C@H]3OC(C)=O)[C@@H]1O | > 50 |
| CC1=C[C@@H]2/C=C/C[C@H](C)C[C@H](C)[C@@H]3O[C@H]3C(=O)[C@]23C(=O)N[C@@H](Cc2ccccc2)[C@@H]3[C@@H]1C | > 50 |

Test system: MDA-MB-435
Test: Cytotoxicity against human MDA-MB-435 cells measured after 72 hrs by MTT assay
Format: functional, cell-based
Conditions: MDA-MB-435, 72 h

| Compound | IC50 [µM] |
| --- | --- |
| CC(=O)O[C@@H]1/C=C/[C@](C)(O)C[C@@H](C)C/C=C/[C@H]2C=C(C(=O)O)[C@@H](C)[C@H]3[C@H](Cc4ccccc4)NC(=O)[C@]321 | > 50 |
| C=C1[C@@H](C)[C@H]2[C@H](Cc3ccccc3)NC(=O)[C@@]23[C@@H]([C@@H]2[C@H](/C=C(/C)C[C@@H](C)C[C@H]2O)[C@H]3OC(C)=O)[C@@H]1O | 45 |
| C=C1[C@@H](C)[C@H]2[C@H](Cc3ccccc3)NC(=O)[C@]23[C@H](OC(C)=O)/C=C/C(C)=C\[C@@H](C)C/C=C/[C@H]3[C@@H]1O | 12 |
| C=C1[C@@H](C)[C@H]2[C@H](Cc3ccccc3)NC(=O)[C@]23[C@H](O)/C=C/[C@](C)(O)C[C@@H](C)C/C=C/[C@H]3[C@@H]1O | 4.9 |
| CC1=C[C@@H]2/C=C/C[C@H](C)C[C@@](C)(O)[C@@H]3O[C@H]3C(=O)[C@]23C(=O)N[C@@H](Cc2ccccc2)[C@@H]3[C@@H]1C | 32 |
| C=C1[C@@H](C)[C@H]2[C@H](Cc3ccccc3)NC(=O)[C@@]23[C@@H]([C@@H]2[C@H](/C=C(/C)C[C@@H](C)C[C@H]2I)[C@H]3OC(C)=O)[C@@H]1O | 47 |
| CC(=O)O[C@@H]1/C=C/[C@](C)(O)C[C@@H](C)C/C=C/[C@H]2C=C(C)[C@@H](C)[C@H]3[C@H](Cc4ccccc4)NC(=O)[C@]321 | 34 |
| C=C1[C@@H](C)[C@H]2[C@H](Cc3ccccc3)NC(=O)[C@@]23[C@@H]([C@@H]2[C@H](/C=C(/C)C[C@@H](C)C[C@H]2Br)[C@H]3OC(C)=O)[C@@H]1O | 7.4 |
| CC1=C[C@@H]2/C=C/C[C@H](C)C[C@H](C)[C@@H]3O[C@H]3C(=O)[C@]23C(=O)N[C@@H](Cc2ccccc2)[C@@H]3[C@@H]1C | 44 |

Test system: A549
Test: Cytotoxicity against human A549 cells measured after 72 hrs by MTT assay
Format: functional, cell-based
Conditions: A549, 72 h

| Compound | IC50 [µM] |
| --- | --- |
| CC(=O)O[C@@H]1/C=C/[C@](C)(O)C[C@@H](C)C/C=C/[C@H]2C=C(C(=O)O)[C@@H](C)[C@H]3[C@H](Cc4ccccc4)NC(=O)[C@]321 | > 50 |
| C=C1[C@@H](C)[C@H]2[C@H](Cc3ccccc3)NC(=O)[C@@]23[C@@H]([C@@H]2[C@H](/C=C(/C)C[C@@H](C)C[C@H]2O)[C@H]3OC(C)=O)[C@@H]1O | > 50 |
| C=C1[C@@H](C)[C@H]2[C@H](Cc3ccccc3)NC(=O)[C@]23[C@H](OC(C)=O)/C=C/C(C)=C\[C@@H](C)C/C=C/[C@H]3[C@@H]1O | > 50 |
| C=C1[C@@H](C)[C@H]2[C@H](Cc3ccccc3)NC(=O)[C@]23[C@H](O)/C=C/[C@](C)(O)C[C@@H](C)C/C=C/[C@H]3[C@@H]1O | > 50 |
| CC1=C[C@@H]2/C=C/C[C@H](C)C[C@@](C)(O)[C@@H]3O[C@H]3C(=O)[C@]23C(=O)N[C@@H](Cc2ccccc2)[C@@H]3[C@@H]1C | 28 |
| C=C1[C@@H](C)[C@H]2[C@H](Cc3ccccc3)NC(=O)[C@@]23[C@@H]([C@@H]2[C@H](/C=C(/C)C[C@@H](C)C[C@H]2I)[C@H]3OC(C)=O)[C@@H]1O | 33 |
| CC(=O)O[C@@H]1/C=C/[C@](C)(O)C[C@@H](C)C/C=C/[C@H]2C=C(C)[C@@H](C)[C@H]3[C@H](Cc4ccccc4)NC(=O)[C@]321 | > 50 |
| C=C1[C@@H](C)[C@H]2[C@H](Cc3ccccc3)NC(=O)[C@@]23[C@@H]([C@@H]2[C@H](/C=C(/C)C[C@@H](C)C[C@H]2Br)[C@H]3OC(C)=O)[C@@H]1O | > 50 |
| CC1=C[C@@H]2/C=C/C[C@H](C)C[C@H](C)[C@@H]3O[C@H]3C(=O)[C@]23C(=O)N[C@@H](Cc2ccccc2)[C@@H]3[C@@H]1C | > 50 |

Test system: not listed separately
Test: Cytotoxicity against African green monkey Vero cells measured after 72 hrs by MTT assay
Format: toxicity, cell-based
Conditions: African green monkey (Chlorocebus sabaeus)

| Compound | IC50 at 72 h [µM] |
| --- | --- |
| CC(=O)O[C@@H]1/C=C/[C@](C)(O)C[C@@H](C)C/C=C/[C@H]2C=C(C(=O)O)[C@@H](C)[C@H]3[C@H](Cc4ccccc4)NC(=O)[C@]321 | > 50 |
| C=C1[C@@H](C)[C@H]2[C@H](Cc3ccccc3)NC(=O)[C@@]23[C@@H]([C@@H]2[C@H](/C=C(/C)C[C@@H](C)C[C@H]2O)[C@H]3OC(C)=O)[C@@H]1O | > 50 |
| C=C1[C@@H](C)[C@H]2[C@H](Cc3ccccc3)NC(=O)[C@]23[C@H](OC(C)=O)/C=C/C(C)=C\[C@@H](C)C/C=C/[C@H]3[C@@H]1O | 25 |
| C=C1[C@@H](C)[C@H]2[C@H](Cc3ccccc3)NC(=O)[C@]23[C@H](O)/C=C/[C@](C)(O)C[C@@H](C)C/C=C/[C@H]3[C@@H]1O | > 50 |
| CC1=C[C@@H]2/C=C/C[C@H](C)C[C@@](C)(O)[C@@H]3O[C@H]3C(=O)[C@]23C(=O)N[C@@H](Cc2ccccc2)[C@@H]3[C@@H]1C | 29 |
| C=C1[C@@H](C)[C@H]2[C@H](Cc3ccccc3)NC(=O)[C@@]23[C@@H]([C@@H]2[C@H](/C=C(/C)C[C@@H](C)C[C@H]2I)[C@H]3OC(C)=O)[C@@H]1O | 29 |
| CC(=O)O[C@@H]1/C=C/[C@](C)(O)C[C@@H](C)C/C=C/[C@H]2C=C(C)[C@@H](C)[C@H]3[C@H](Cc4ccccc4)NC(=O)[C@]321 | > 50 |
| C=C1[C@@H](C)[C@H]2[C@H](Cc3ccccc3)NC(=O)[C@@]23[C@@H]([C@@H]2[C@H](/C=C(/C)C[C@@H](C)C[C@H]2Br)[C@H]3OC(C)=O)[C@@H]1O | 18 |
| CC1=C[C@@H]2/C=C/C[C@H](C)C[C@H](C)[C@@H]3O[C@H]3C(=O)[C@]23C(=O)N[C@@H](Cc2ccccc2)[C@@H]3[C@@H]1C | > 50 |
